# Source: patent EP1433789A1, “Pyrrolopyrazines and their use as selective apoptosis inducers” (Aponetics AG, priority 2002, dated 2004)
# How the values were obtained:
# A20 [1] = experiment: Hoechst 33342 nuclear staining (Table 3); assay type: cell-based, mouse; parameters: key: 0 relating to no activity; 1 relating to weak activity comprising less than 50% of the cells; score 2 relating to strong activity comprising more than 50% of the cells
# Outline: (§1)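 Adherent cells (3-5×10^3, pre-spread 24 h) or suspension cells (8-10×10^3) treated with compounds at 10, 3, 1 and 0.3 µM for 24 or 48 h, then Hoechst 33342 stained for 30 min. Apoptotic nuclear morphology scored by fluorescence microscopy: 0 none, 1 weak (<50% cells), 2 strong (>50% cells).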
# HeLa [2] = experiment: Hoechst 33342 nuclear staining (Table 3); assay type: cell-based, human; parameters: key: 0 relating to no activity; 1 relating to weak activity comprising less than 50% of the cells; score 2 relating to strong activity comprising more than 50% of the cells
# Outline: as §1
# Jurkat [3] = experiment: Hoechst 33342 nuclear staining (Table 3); assay type: cell-based, human; parameters: key: 0 relating to no activity; 1 relating to weak activity comprising less than 50% of the cells; score 2 relating to strong activity comprising more than 50% of the cells
# Outline: as §1
# K562 [4] = experiment: Hoechst 33342 nuclear staining (Table 3); assay type: cell-based, human; parameters: key: 0 relating to no activity; 1 relating to weak activity comprising less than 50% of the cells; score 2 relating to strong activity comprising more than 50% of the cells
# Outline: as §1
# KB = experiment: Hoechst 33342 nuclear staining (Table 3); assay type: cell-based, human; parameters: key: 0 relating to no activity; 1 relating to weak activity comprising less than 50% of the cells; score 2 relating to strong activity comprising more than 50% of the cells
# Outline: as §1
# HeLa [5] = experiment: MTS proliferation assay; assay type: cell-based; settings: Homo sapiens, 72 h incubation
# Outline: (§2)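 Cells (1.5*10^3–10^4/well) seeded 24 h before treatment, then exposed 72 h to compound at 10, 3, 1 or 0.3 µM final (≤5% DMSO in added medium). Viability by MTS reagent, 3 h further incubation, absorbance at 492 nm.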
# Jurkat [6] = experiment: MTS proliferation assay; assay type: cell-based; settings: Homo sapiens, 72 h incubation
# Outline: as §2
# K562 [7] = experiment: MTS proliferation assay; assay type: cell-based; settings: Homo sapiens, K562, 72 h incubation
# Outline: as §2
# HeLa [8] = experiment: AnnexinV/7-AAD staining; assay type: cell-based, human; settings: 10 µM, 24 h treatment
# Outline: (§3)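 Cells treated with compound at 10 µM final for 24 h, then stained with AnnexinV-GST/anti-GST Alexa 488 and 7-AAD and analysed by flow cytometry. Percent positive cells scored as 0 (<10%), 1 (10–50%) or 2 (>50%).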
# Jurkat [9] = experiment: AnnexinV/7-AAD staining; assay type: cell-based, human; settings: 10 µM, 24 h treatment
# Outline: as §3
# Ramos = experiment: AnnexinV/7-AAD staining; assay type: cell-based, human; settings: 10 µM, 24 h treatment
# Outline: as §3
# A20 [10] = experiment: AnnexinV/7-AAD staining; assay type: cell-based, mouse; settings: A20, 10 µM, 24 h treatment
# Outline: as §3
smiles,measurement,setting,value
CCC1Cc2cc(OC)c(OC)cc2-c2cc3nc4ccccc4nc3n21 (stereo not drawn) [compound 13],Hoechst 33342 nuclear staining,"A20 [1]; A20, 24h, conc 0.3 (µM)",0
same,Hoechst 33342 nuclear staining,"A20 [1]; A20, 24h, conc 1 (µM)",0
same,Hoechst 33342 nuclear staining,"A20 [1]; A20, 24h, conc 3 (µM)",0
same,Hoechst 33342 nuclear staining,"A20 [1]; A20, 24h, conc 10 (µM)",0
same,Hoechst 33342 nuclear staining,"A20 [1]; A20, 48h, conc 0.3 (µM)",0
same,Hoechst 33342 nuclear staining,"A20 [1]; A20, 48h, conc 1 (µM)",0
same,Hoechst 33342 nuclear staining,"A20 [1]; A20, 48h, conc 3 (µM)",0
same,Hoechst 33342 nuclear staining,"A20 [1]; A20, 48h, conc 10 (µM)",0
same,Hoechst 33342 nuclear staining,"HeLa [2]; 24h, conc 0.3 (µM)",0
same,Hoechst 33342 nuclear staining,"HeLa [2]; 24h, conc 1 (µM)",0
same,Hoechst 33342 nuclear staining,"HeLa [2]; 24h, conc 3 (µM)",0
same,Hoechst 33342 nuclear staining,"HeLa [2]; 24h, conc 10 (µM)",0
same,Hoechst 33342 nuclear staining,"HeLa [2]; 48h, conc 0.3 (µM)",0
same,Hoechst 33342 nuclear staining,"HeLa [2]; 48h, conc 1 (µM)",0
same,Hoechst 33342 nuclear staining,"HeLa [2]; 48h, conc 3 (µM)",2 (score 2 relating to strong activity comprising more than 50% of the cells)
same,Hoechst 33342 nuclear staining,"HeLa [2]; 48h, conc 10 (µM)",2 (score 2 relating to strong activity comprising more than 50% of the cells)
same,Hoechst 33342 nuclear staining,"Jurkat [3]; 24h, conc 0.3 (µM)",0
same,Hoechst 33342 nuclear staining,"Jurkat [3]; 24h, conc 1 (µM)",0
same,Hoechst 33342 nuclear staining,"Jurkat [3]; 24h, conc 3 (µM)",1 (1 relating to weak activity comprising less than 50% of the cells)
same,Hoechst 33342 nuclear staining,"Jurkat [3]; 24h, conc 10 (µM)",2 (score 2 relating to strong activity comprising more than 50% of the cells)
same,Hoechst 33342 nuclear staining,"Jurkat [3]; 48h, conc 0.3 (µM)",0
same,Hoechst 33342 nuclear staining,"Jurkat [3]; 48h, conc 1 (µM)",2 (score 2 relating to strong activity comprising more than 50% of the cells)
same,Hoechst 33342 nuclear staining,"Jurkat [3]; 48h, conc 3 (µM)",2 (score 2 relating to strong activity comprising more than 50% of the cells)
same,Hoechst 33342 nuclear staining,"Jurkat [3]; 48h, conc 10 (µM)",2 (score 2 relating to strong activity comprising more than 50% of the cells)
same,Hoechst 33342 nuclear staining,"K562 [4]; K562, 24h, conc 0.3 (µM)",0
same,Hoechst 33342 nuclear staining,"K562 [4]; K562, 24h, conc 1 (µM)",0
same,Hoechst 33342 nuclear staining,"K562 [4]; K562, 24h, conc 3 (µM)",0
same,Hoechst 33342 nuclear staining,"K562 [4]; K562, 24h, conc 10 (µM)",2 (score 2 relating to strong activity comprising more than 50% of the cells)
same,Hoechst 33342 nuclear staining,"K562 [4]; K562, 48h, conc 0.3 (µM)",0
same,Hoechst 33342 nuclear staining,"K562 [4]; K562, 48h, conc 1 (µM)",0
same,Hoechst 33342 nuclear staining,"K562 [4]; K562, 48h, conc 3 (µM)",1 (1 relating to weak activity comprising less than 50% of the cells)
same,Hoechst 33342 nuclear staining,"K562 [4]; K562, 48h, conc 10 (µM)",2 (score 2 relating to strong activity comprising more than 50% of the cells)
same,Hoechst 33342 nuclear staining,"KB; 24h, conc 0.3 (µM)",0
same,Hoechst 33342 nuclear staining,"KB; 24h, conc 1 (µM)",0
same,Hoechst 33342 nuclear staining,"KB; 24h, conc 3 (µM)",0
same,Hoechst 33342 nuclear staining,"KB; 24h, conc 10 (µM)",2 (score 2 relating to strong activity comprising more than 50% of the cells)
same,Hoechst 33342 nuclear staining,"KB; 48h, conc 0.3 (µM)",0
same,Hoechst 33342 nuclear staining,"KB; 48h, conc 1 (µM)",0
same,Hoechst 33342 nuclear staining,"KB; 48h, conc 3 (µM)",2 (score 2 relating to strong activity comprising more than 50% of the cells)
same,Hoechst 33342 nuclear staining,"KB; 48h, conc 10 (µM)",2 (score 2 relating to strong activity comprising more than 50% of the cells)
same,IC50,HeLa [5],> 10 µM
same,IC50,Jurkat [6],1 to 10 µM
same,IC50,K562 [7],> 10 µM
same,percentage of positively stained cells (AnnexinV/7-AAD staining),HeLa [8],1 (score 1 relates to more than 10% but less than 50%)
same,percentage of positively stained cells (AnnexinV/7-AAD staining),Jurkat [9],2 (score 2 relates to more than 50% positivity)
same,percentage of positively stained cells (AnnexinV/7-AAD staining),Ramos,2 (score 2 relates to more than 50% positivity)
same,percentage of positively stained cells (AnnexinV/7-AAD staining),A20 [10],2 (score 2 relates to more than 50% positivity)
COc1cc2c(cc1OC)-c1c(Br)c3nc4ccccc4nc3n1C(C)C2 (stereo not drawn) [compound 10],Hoechst 33342 nuclear staining,"A20 [1]; A20, 24h, conc 0.3 (µM)",0
same,Hoechst 33342 nuclear staining,"A20 [1]; A20, 24h, conc 1 (µM)",0
same,Hoechst 33342 nuclear staining,"A20 [1]; A20, 24h, conc 3 (µM)",0
same,Hoechst 33342 nuclear staining,"A20 [1]; A20, 24h, conc 10 (µM)",2 (score 2 relating to strong activity comprising more than 50% of the cells)
same,Hoechst 33342 nuclear staining,"A20 [1]; A20, 48h, conc 0.3 (µM)",0
same,Hoechst 33342 nuclear staining,"A20 [1]; A20, 48h, conc 1 (µM)",0
same,Hoechst 33342 nuclear staining,"A20 [1]; A20, 48h, conc 3 (µM)",2 (score 2 relating to strong activity comprising more than 50% of the cells)
same,Hoechst 33342 nuclear staining,"HeLa [2]; 24h, conc 0.3 (µM)",0
same,Hoechst 33342 nuclear staining,"HeLa [2]; 24h, conc 1 (µM)",0
same,Hoechst 33342 nuclear staining,"HeLa [2]; 24h, conc 3 (µM)",0
same,Hoechst 33342 nuclear staining,"HeLa [2]; 24h, conc 10 (µM)",2 (score 2 relating to strong activity comprising more than 50% of the cells)
same,Hoechst 33342 nuclear staining,"HeLa [2]; 48h, conc 0.3 (µM)",0
same,Hoechst 33342 nuclear staining,"HeLa [2]; 48h, conc 1 (µM)",0
same,Hoechst 33342 nuclear staining,"HeLa [2]; 48h, conc 3 (µM)",2 (score 2 relating to strong activity comprising more than 50% of the cells)
same,Hoechst 33342 nuclear staining,"HeLa [2]; 48h, conc 10 (µM)",2 (score 2 relating to strong activity comprising more than 50% of the cells)
same,Hoechst 33342 nuclear staining,"Jurkat [3]; 24h, conc 0.3 (µM)",1 (1 relating to weak activity comprising less than 50% of the cells)
same,Hoechst 33342 nuclear staining,"Jurkat [3]; 24h, conc 1 (µM)",2 (score 2 relating to strong activity comprising more than 50% of the cells)
same,Hoechst 33342 nuclear staining,"Jurkat [3]; 24h, conc 3 (µM)",2 (score 2 relating to strong activity comprising more than 50% of the cells)
same,Hoechst 33342 nuclear staining,"Jurkat [3]; 24h, conc 10 (µM)",2 (score 2 relating to strong activity comprising more than 50% of the cells)
same,Hoechst 33342 nuclear staining,"Jurkat [3]; 48h, conc 0.3 (µM)",1 (1 relating to weak activity comprising less than 50% of the cells)
same,Hoechst 33342 nuclear staining,"Jurkat [3]; 48h, conc 1 (µM)",2 (score 2 relating to strong activity comprising more than 50% of the cells)
same,Hoechst 33342 nuclear staining,"Jurkat [3]; 48h, conc 3 (µM)",2 (score 2 relating to strong activity comprising more than 50% of the cells)
same,Hoechst 33342 nuclear staining,"Jurkat [3]; 48h, conc 10 (µM)",2 (score 2 relating to strong activity comprising more than 50% of the cells)
same,Hoechst 33342 nuclear staining,"K562 [4]; K562, 24h, conc 0.3 (µM)",0
same,Hoechst 33342 nuclear staining,"K562 [4]; K562, 24h, conc 1 (µM)",0
same,Hoechst 33342 nuclear staining,"K562 [4]; K562, 24h, conc 3 (µM)",2 (score 2 relating to strong activity comprising more than 50% of the cells)
same,Hoechst 33342 nuclear staining,"K562 [4]; K562, 24h, conc 10 (µM)",2 (score 2 relating to strong activity comprising more than 50% of the cells)
same,Hoechst 33342 nuclear staining,"K562 [4]; K562, 48h, conc 0.3 (µM)",0
same,Hoechst 33342 nuclear staining,"K562 [4]; K562, 48h, conc 1 (µM)",2 (score 2 relating to strong activity comprising more than 50% of the cells)
same,Hoechst 33342 nuclear staining,"K562 [4]; K562, 48h, conc 3 (µM)",2 (score 2 relating to strong activity comprising more than 50% of the cells)
same,Hoechst 33342 nuclear staining,"K562 [4]; K562, 48h, conc 10 (µM)",2 (score 2 relating to strong activity comprising more than 50% of the cells)
same,Hoechst 33342 nuclear staining,"KB; 24h, conc 0.3 (µM)",0
same,Hoechst 33342 nuclear staining,"KB; 24h, conc 1 (µM)",0
same,Hoechst 33342 nuclear staining,"KB; 24h, conc 3 (µM)",2 (score 2 relating to strong activity comprising more than 50% of the cells)
same,Hoechst 33342 nuclear staining,"KB; 24h, conc 10 (µM)",2 (score 2 relating to strong activity comprising more than 50% of the cells)
same,Hoechst 33342 nuclear staining,"KB; 48h, conc 0.3 (µM)",0
same,Hoechst 33342 nuclear staining,"KB; 48h, conc 1 (µM)",2 (score 2 relating to strong activity comprising more than 50% of the cells)
same,Hoechst 33342 nuclear staining,"KB; 48h, conc 3 (µM)",2 (score 2 relating to strong activity comprising more than 50% of the cells)
same,Hoechst 33342 nuclear staining,"KB; 48h, conc 10 (µM)",2 (score 2 relating to strong activity comprising more than 50% of the cells)
same,IC50,HeLa [5],1 to 10 µM
same,IC50,Jurkat [6],> 10 µM
same,IC50,K562 [7],> 10 µM
same,percentage of positively stained cells (AnnexinV/7-AAD staining),HeLa [8],2 (score 2 relates to more than 50% positivity)
same,percentage of positively stained cells (AnnexinV/7-AAD staining),Jurkat [9],2 (score 2 relates to more than 50% positivity)
same,percentage of positively stained cells (AnnexinV/7-AAD staining),Ramos,2 (score 2 relates to more than 50% positivity)
same,percentage of positively stained cells (AnnexinV/7-AAD staining),A20 [10],1 (score 1 relates to more than 10% but less than 50%)
